Patent publication US20240336606A1 (Suzhou Zelgen Biopharmaceuticals Co., Ltd., priority 2020, published 2024)
Structures can show the parent of a compound that is named as a salt.

biological target: T1, binding of KRAS^G12C to SOS1 (Homo sapiens, UniProt Q07889); assay: Inhibition of the binding of KRAS^G12C to SOS1; conditions: Tag1-SOS1 / Tag2-KRAS^G12C, 2 h incubation at room temperature; read-out: IC50 (nM), inhibitory activity on the binding of KRAS^G12C to SOS1
T1 construct: Tag1 (unspecified)
T1 sequence (Q07889 1-1333): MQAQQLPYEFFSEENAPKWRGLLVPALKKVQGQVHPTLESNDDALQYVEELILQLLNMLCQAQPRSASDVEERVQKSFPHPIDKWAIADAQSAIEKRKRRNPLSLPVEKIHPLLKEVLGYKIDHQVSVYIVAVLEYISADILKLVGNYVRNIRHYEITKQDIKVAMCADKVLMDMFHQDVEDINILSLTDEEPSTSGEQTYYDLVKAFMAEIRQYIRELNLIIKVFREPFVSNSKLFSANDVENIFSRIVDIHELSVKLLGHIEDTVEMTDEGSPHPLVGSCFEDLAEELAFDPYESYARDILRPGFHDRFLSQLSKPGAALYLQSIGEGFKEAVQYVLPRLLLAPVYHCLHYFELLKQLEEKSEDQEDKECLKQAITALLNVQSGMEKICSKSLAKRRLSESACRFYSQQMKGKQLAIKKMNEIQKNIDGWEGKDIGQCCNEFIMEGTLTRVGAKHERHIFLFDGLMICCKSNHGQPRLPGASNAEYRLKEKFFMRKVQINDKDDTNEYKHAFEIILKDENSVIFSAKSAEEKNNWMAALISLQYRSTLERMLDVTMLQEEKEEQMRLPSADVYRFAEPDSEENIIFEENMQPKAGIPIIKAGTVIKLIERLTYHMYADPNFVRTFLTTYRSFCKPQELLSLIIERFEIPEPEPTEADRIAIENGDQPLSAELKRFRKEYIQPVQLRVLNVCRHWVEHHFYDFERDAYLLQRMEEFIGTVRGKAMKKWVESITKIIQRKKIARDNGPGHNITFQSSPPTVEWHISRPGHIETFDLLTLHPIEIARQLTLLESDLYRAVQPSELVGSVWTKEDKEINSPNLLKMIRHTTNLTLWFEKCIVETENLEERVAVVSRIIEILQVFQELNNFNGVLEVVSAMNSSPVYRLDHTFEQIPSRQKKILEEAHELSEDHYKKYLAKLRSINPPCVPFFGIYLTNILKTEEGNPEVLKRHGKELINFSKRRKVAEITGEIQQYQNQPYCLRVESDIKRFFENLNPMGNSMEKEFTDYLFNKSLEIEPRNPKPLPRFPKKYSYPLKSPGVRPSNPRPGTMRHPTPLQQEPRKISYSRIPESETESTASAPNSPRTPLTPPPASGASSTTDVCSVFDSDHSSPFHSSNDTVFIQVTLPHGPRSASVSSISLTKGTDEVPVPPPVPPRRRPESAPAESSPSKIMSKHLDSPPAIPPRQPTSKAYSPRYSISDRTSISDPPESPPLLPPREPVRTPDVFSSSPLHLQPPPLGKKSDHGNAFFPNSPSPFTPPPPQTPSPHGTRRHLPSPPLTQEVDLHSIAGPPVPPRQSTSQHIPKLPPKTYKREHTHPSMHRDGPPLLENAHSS
Method: • (1) Gradient dilution of the test compounds: 10 mM mother solution (dissolved in 100% DMSO) was added to a 384-well test plate, the final content of DMSO being 0.25%.
(2) 5 μL of Tag1-SOS1 solution was added to the test plate, and 5 μL of dilution buffer was added to the control group.
(3) 5 μL of Tag2-KRAS^G12C solution was added to the test plate.
(4) 10 μL of Anti-Tag1-Tb3+ and Anti-Tag2-XL665 detection solution were added to the test plate. The plate was centrifuged at 1000 rpm for 1 min and incubated at room temperature for 2 h.
(6) The IC50 values for the compounds were finally calculated using GraphPad Prism software, and a curve was fit and plotted.
The inhibitory activity of the compounds of the examples of the present invention on the binding of KRAS^G12C enzyme to SOS1 is shown in Table 1.

Row | IC50 [nM] | Compound
1 | 12 | COCC1(C(C)Oc2cc3c(N[C@H](C)c4cc(N)cc(C(F)(F)F)c4)nc(C)nc3cc2OC)CC1 (stereo partly drawn) [Example 63, N—((R)-1-(3-Amino-5-(trifluoromethyl)phenyl)ethyl)-7-methoxy-6-(1-(1-(methoxymethyl)cyclopropyl)ethoxy)-2-methylquinazolin-4-amine]
2 | 7 | COc1cc2nc(C)nc(N[C@H](C)c3cc(N)cc(C(F)(F)F)c3)c2cc1OCCO[C@H]1CCOC1 [Example 66, N—((R)-1-(3-Amino-5-(trifluoromethyl)phenyl)ethyl)-7-methoxy-2-methyl-6-(2-(((S)-tetrahydrofuran-3-yl)oxy)ethoxy)quinazolin-4-amine]
3 | 7.4 | COc1cc2nc(C)nc(N[C@H](C)c3cc(N)cc(C(F)(F)F)c3)c2cc1OC[C@H](C)OC [Example 47]
4 | 314 | COCCOc1cc2c(N[C@@H](C)c3cccc(C(F)(F)C(C)(C)O)c3F)nc(C)nc2cc1OC [Example 71, (S)-1,1-Difluoro-1-(2-fluoro-3-(1-((7-methoxy-6-(2-methoxyethoxy)-2-methylquinazolin-4-yl)amino)ethyl)phenyl)-2-methylpropan-2-ol formate]
5 | 15 | COc1cc2nc(C)nc(N[C@H](C)c3cc(N)cc(C(F)(F)F)n3)c2cc1OCCOC1(C)CCC1 [Example 73, (R)—N-(1-(4-Amino-6-(trifluoromethyl)pyridin-2-yl)ethyl)-7-methoxy-2-methyl-6-(2-(1-methylcyclobutyloxy)ethoxy)quinazolin-4-amine]
6 | 924 | COCCOc1cc2c(N[C@H](C)c3cncc(C(F)(F)C(C)(C)O)c3)nc(C)nc2cc1OC [Example 77]
7 | 8.2 | COc1cc2nc(C)nc(N[C@H](C)c3cc(N)cc(C(F)(F)F)c3)c2cc1OC[C@H]1CCCO1 [Example 40, N—((R)-1-(3-Amino-5-(trifluoromethyl)phenyl)ethyl)-7-methoxy-2-methyl-6-(((R)-tetrahydrofuran-2-yl)methoxy)quinazolin-4-amine]
8 | 7.9 | COc1cc2nc(C)nc(N[C@H](C)c3cc(N)cc(C(F)(F)F)c3)c2cc1OC[C@@H]1COCCO1 [Example 28, 6-(((S)-1,4-Dioxan-2-yl)methoxy)-N—((R)-1-(3-amino-5-(trifluoromethyl)phenyl)ethyl)-7-m ethoxy-2-methylquinazolin-4-amine]
9 | 31 | COCCOc1cc2c(N[C@H](C)c3cc(N)cc(C(F)(F)F)n3)nc(C)nc2cc1OC [Example 52, (R)—N-(1-(4-Amino-6-(trifluoromethyl)pyridin-2-yl)ethyl)-7-methoxy-6-(2-methoxyethoxy)-2-methylquinazolin-4-amine]
10 | 16 | COc1cc2nc(C)nc(N[C@H](C)c3cccc(C(F)(F)F)c3F)c2cc1OCC1(CO)CC1 [Example 55, (R)-(1-(((4-((1-(2-Fluoro-3-(trifluoromethyl)phenyl)ethyl)amino)-7-methoxy-2-methylquinazolin-6-yl)oxy)methyl)cyclopropyl)methanol]
11 | 5.2 | [2H]C([2H])([2H])OCCOc1cc2c(N[C@H](C)c3cc(N)cc(C(F)(F)F)c3)nc(C)nc2cc1OC [Example 57, (R)—N-(1-(3-Amino-5-(trifluoromethyl)phenyl)ethyl)-7-methoxy-6-(2-(methoxy-d3)ethoxy)-2-methylquinazolin-4-amine]
12 | 4.7 | COc1cc2nc(C)nc(N[C@H](C)c3cccc(C(F)(F)C(C)(C)O)c3F)c2cc1OC[C@@H]1CN(S(C)(=O)=O)CCO1 [Example 29]
13 | 5.3 | COc1cc2nc(C)nc(N[C@H](C)c3cc(N)cc(C(F)(F)F)c3)c2cc1OCCOc1cccnc1 [Example 62, (R)—N-(1-(3-Amino-5-(trifluoromethyl)phenyl)ethyl)-7-methoxy-2-methyl-6-(2-(pyridin-3-yloxy)ethoxy)quinazolin-4-amine]
14 | 8.5 | COc1cc2nc(C)nc(N[C@H](C)c3cc(N)cc(C(F)(F)F)c3)c2cc1OC[C@@H]1CCCN1C [Example 2]
15 | 24 | COc1cc2nc(C)nc(N[C@H](C)c3cc(N)cc(C(F)(F)F)n3)c2cc1OCCOC1COC1 [Example 70, (R)—N-(1-(4-Amino-6-(trifluoromethyl)pyridin-2-yl)ethyl)-7-methoxy-2-methyl-6-(2-(oxetan-3-yloxy)ethoxy)quinazolin-4-amine]
16 | 252 | COc1cc2nc(C)nc(N[C@H](C)c3cc(N)nc(C(F)(F)F)c3)c2cc1OCCOC1CC1 [Example 41, (R)—N-(1-(2-Amino-6-(trifluoromethyl)pyridin-4-yl)ethyl)-6-(2-cyclopropoxyethoxy)-7-met hoxy-2-methylquinazolin-4-amine]
17 | 4.7 | COc1cc2nc(C)nc(N[C@H](C)c3cc(N)cc(C(F)(F)F)c3)c2cc1OCCN(C)CC1(F)CC1 [Example 21, (R)—N-(1-(3-amino-5-(trifluoromethyl)phenyl)ethyl)-6-(2-(((1-fluorocyclopropyl)methyl)(methyl)amino)ethoxy)-7-methoxy-2-methylquinazolin-4-amine]
18 | 15 | CNCC1(COc2cc3c(N[C@H](C)c4cccc(C(F)(F)F)c4F)nc(C)nc3cc2OC)CC1 [Example 54, (R)—N-(1-(2-Fluoro-3-(trifluoromethyl)phenyl)ethyl)-7-methoxy-2-methyl-6-((1-((methylamino)methyl)cyclopropyl)methoxy)quinazolin-4-amine]
19 | 20 | COCCOc1cc2c(N[C@H](C)c3cccc(C(F)(F)C(C)(C)O)c3Cl)nc(C)nc2cc1OC [Example 88, (R)-1-(2-Chloro-3-(1-((7-methoxy-6-(2-methoxyethoxy)-2-methylquinazolin-4-yl)amino)ethyl)phenyl)-1,1-difluoro-2-methylpropan-2-ol]

system: H358 cells; assay: Inhibition of H358 cell proliferation (CellTiter-Glo 3D, 7 days); assay type: cell-based; conditions: Homo sapiens, 168 h, NCI-H358, 7 days, read-out: IC50 (nM), inhibitory activity on H358 cell proliferation
Method: • (a) The cells were thawed in T75 cell culture flasks:
• (b) When 80-90% cell confluence was achieved, the cells were passaged.
The diluted test compounds were added to a 384-well cell culture plate using a nanoliter pipetting system, and duplicate wells were set. An equal volume of medium was added to the positive control group; an equal volume of DMSO was added to the negative control group. The plate was centrifuged at 1000 rpm at room temperature for 1 min.
The cells were inoculated into a) 384-well culture plate, an equal volume of cells was added to the negative control group, and only an equal volume of medium was added to the positive control group. The plate was centrifuged at 1000 rpm at room temperature for 1 min. The final concentration of DMSO in the final compounds was 0.5%. The plate was incubated in a thermostatic incubator at 37° C. with 5% CO2 for 7 days.
CellTiter-Glo® 3D was added to b) 384-well cell culture plate at 20 μL/well. The plate was shaken at 320 rpm in the dark for 20 min, and incubated at room temperature in the dark for 2 h. The luminescence values were read using an Envision multi-mode microplate reader.
The inhibition rates of the compounds at different concentrations were calculated in Excel, and then inhibition curves were plotted and relevant parameters including minimum inhibition rate, maximum inhibition rate and IC50 were calculated using GraphPad Prism software.

Row | IC50 [nM] | Compound
20 | > 10000 | COCCOc1cc2c(N[C@H](C)c3cc(C#N)cc(C(F)(F)C(C)(C)O)c3)nc(C)nc2cc1OC [Example 91, (R)-3-(1,1-Difluoro-2-hydroxy-2-methylpropane)-5-(1-((7-methoxy-6-(2-methoxyethoxy)-2-methylquinazolin-4-yl)amino)ethyl)benzonitrile]
21 | 20 | COCCOc1cc2c(N[C@H](C)c3cccc(C(F)(F)C(C)(C)O)c3F)nc(C)nc2cc1OC(C)C [Example 99, (R)-1,1-Difluoro-1-(2-fluoro-3-(1-((7-isopropoxy-6-(2-methoxyethoxy)-2-methylquinazolin-4-yl)amino)ethyl)phenyl)-2-methylpropan-2-ol]
